According to US20250262336A1, “[177LU] LUTETIUM-PSMA I&T COMPOSITION AND DOSIMETRY, KIT, METHOD OF MAKING, AND METHOD OF USING THEREOF” (Curium US LLC, priority 2023, published 2025):

Assay: Cycle 1 normal organ dosimetry (SPECT/CT, TIACs, OLINDA 2.2.3)
Type: in vivo, human
Conditions: for Absorbed Dose, Mean / Absorbed Dose, max / Absorbed Dose, median / Absorbed Dose, min: Cycle 1, n = 26; for Absorbed Dose in Cycle 1, Mean / Absorbed Dose in Cycle 1, max / Absorbed Dose in Cycle 1, min: N = 16 patients imaged at cycle 1 and 3
Procedure: This Example presents the biodistribution, dosimetry, and pharmacokinetics (PK) results of a PK/Dosimetry sub-study performed as part of a Phase III trial. Twenty-seven (27) patients were administered a target activity of 7.4±10% GBq of ^177Lu-PSMA-I&T and underwent single photon emission computed tomography (SPECT)/computed tomography (CT) imaging at four timepoints (4 h, 24 h, 48 h, and 168 h). Image data was analysed to compute time-activity curves (TACs) and subsequently time-integrated activity coefficients (TIACs) in each organ of interest and in organs showing appreciable and meaningful ^177Lu-PSMA-I&T activity. Organ Level Internal Dose Assessment (OLINDA 2.2.3) was used to compute organ and whole body absorbed radiation doses for each patient.
All participating sites underwent a rigorous site setup process during which all dose calibrators, scanners, and gamma counters used in the sub-study were calibrated. Sites were allowed to enroll patients in the sub-study only after the completion and approval of all site setup processes by Invicro. Patients underwent SPECT/CT imaging, with anatomical coverage typically extending from the salivary glands to the pelvis, following the administration of a targeted 7.4±10% GBq of ^177Lu-PSMA-I&T at cycle 1. SPECT/CT imaging was performed at four timepoints: 4 h, 24 h, 48 h, and 168 h post-injection. Additionally, a subset of patients imaged at Cycle 1 (16 out of 27), were also imaged at Cycle 3 (Table 2).
In general, raw projection data was acquired into a 128×128 matrix with medium energy general purpose (MEGP) collimation using a step and shoot acquisition mode, acquiring 60 projections per detector (180 degrees rotation per detector), 20 seconds per projection, with an acquisition zoom of 1.0, and a 20% (±10%) energy window centered over 208 keV.
A low-dose CT scan was performed prior to beginning the SPECT scan for attenuation correction. Sites were instructed to use the Institutional standard parameters for acquisition of the low-dose CT. Institutional standard reconstruction parameters were used. Scatter correction was required to be applied using a 20% (±10%) scatter window centered over 170 keV.
The imaging data was analyzed using Invicro's VivoQuant software, a validated software used in a 21 CFR § 11-compliant workflow. The general quantification approach was based on the principles detailed in the Medical Internal Radiation Dose (MIRD) Pamphlet No. 16, No 23, and No 26 as appropriate.
SPECT images were calibrated in units of Becquerel (Bq) using a calibration factor derived from a source of known activity, measured during site set up with the same acquisition and reconstruction parameters employed for patient imaging. A patient-specific calibration factor was also derived at each clinical time point after acquisition of the patient SPECT/CT. As a quality control measure, if the patient-specific calibration factor differed by more than 10% from the site set up calibration factor, an investigation was conducted.
Volume of interest (VOI) (kidneys, bladder, liver, lumbar vertebrae L2-L4, lacrimal glands, salivary glands [parotid and submandibular glands], and whole body) were delineated on each dataset by a trained image analyst. […] Organs were segmented either by drawing the entire contour of the organ, or by placing a sphere in a representative region of the organ and then multiplying by the organ's effective mass (based on patient's height and weight). Segmentation methods for each organ are specified in Table 3 and were consistently applied to each patient.
Clearance of the radiopharmaceutical was derived from a data-appropriate fit of each organ's TAC. Depending on the TAC's shape, the data was fitted with the sum of one, two, or three exponentials, or using a rise and fall model. Fitting was performed with in-house Python software. TIACs were calculated through analytical integration of the curve fit extrapolated to infinity. […]

[1] = Lacrimal Glands (OLINDA sphere model)

Absorbed Dose, Mean (Adrenals): 0.02 Gy/GBq
Absorbed Dose, max (Adrenals): 0.08 Gy/GBq
Absorbed Dose, median (Adrenals): 0.02 Gy/GBq
Absorbed Dose, min (Adrenals): 0.01 Gy/GBq
Absorbed Dose in Cycle 1, Mean (Adrenals): 0.02 Gy/GBq
Absorbed Dose in Cycle 1, max (Adrenals): 0.08 Gy/GBq
Absorbed Dose in Cycle 1, min (Adrenals): 0.01 Gy/GBq
Absorbed Dose, Mean (Brain): 0.01 Gy/GBq
Absorbed Dose, max (Brain): 0.07 Gy/GBq
Absorbed Dose, median (Brain): 0.01 Gy/GBq
Absorbed Dose, min (Brain): 0.00 Gy/GBq
Absorbed Dose in Cycle 1, Mean (Brain): 0.01 Gy/GBq
Absorbed Dose in Cycle 1, max (Brain): 0.07 Gy/GBq
Absorbed Dose in Cycle 1, min (Brain): 0.00 Gy/GBq
Absorbed Dose, Mean (Esophagus): 0.02 Gy/GBq
Absorbed Dose, max (Esophagus): 0.07 Gy/GBq
Absorbed Dose, median (Esophagus): 0.01 Gy/GBq
Absorbed Dose, min (Esophagus): 0.00 Gy/GBq
Absorbed Dose in Cycle 1, Mean (Esophagus): 0.01 Gy/GBq
Absorbed Dose in Cycle 1, max (Esophagus): 0.07 Gy/GBq
Absorbed Dose in Cycle 1, min (Esophagus): 0.00 Gy/GBq
Absorbed Dose, Mean (Eyes): 0.01 Gy/GBq
Absorbed Dose, max (Eyes): 0.07 Gy/GBq
Absorbed Dose, median (Eyes): 0.01 Gy/GBq
Absorbed Dose, min (Eyes): 0.00 Gy/GBq
Absorbed Dose in Cycle 1, Mean (Eyes): 0.01 Gy/GBq
Absorbed Dose in Cycle 1, max (Eyes): 0.07 Gy/GBq
Absorbed Dose in Cycle 1, min (Eyes): 0.00 Gy/GBq
Absorbed Dose, Mean (Gallbladder wall): 0.02 Gy/GBq
Absorbed Dose, max (Gallbladder wall): 0.07 Gy/GBq
Absorbed Dose, median (Gallbladder wall): 0.01 Gy/GBq
Absorbed Dose, min (Gallbladder wall): 0.00 Gy/GBq
Absorbed Dose in Cycle 1, Mean (Gallbladder wall): 0.02 Gy/GBq
Absorbed Dose in Cycle 1, max (Gallbladder wall): 0.07 Gy/GBq
Absorbed Dose in Cycle 1, min (Gallbladder wall): 0.00 Gy/GBq
Absorbed Dose, Mean (Heart wall): 0.02 Gy/GBq
Absorbed Dose, max (Heart wall): 0.07 Gy/GBq
Absorbed Dose, median (Heart wall): 0.01 Gy/GBq
Absorbed Dose, min (Heart wall): 0.00 Gy/GBq
Absorbed Dose in Cycle 1, Mean (Heart wall): 0.01 Gy/GBq
Absorbed Dose in Cycle 1, max (Heart wall): 0.07 Gy/GBq
Absorbed Dose in Cycle 1, min (Heart wall): 0.00 Gy/GBq
Absorbed Dose, Mean (Kidneys): 0.41 Gy/GBq
Absorbed Dose, max (Kidneys): 0.81 Gy/GBq
Absorbed Dose, median (Kidneys): 0.37 Gy/GBq
Absorbed Dose, min (Kidneys): 0.17 Gy/GBq
Absorbed Dose in Cycle 1, Mean (Kidneys): 0.41 Gy/GBq
Absorbed Dose in Cycle 1, max (Kidneys): 0.81 Gy/GBq
Absorbed Dose in Cycle 1, min (Kidneys): 0.17 Gy/GBq
Absorbed Dose in Cycle 1, Mean [1]: 0.39 Gy/GBq
Absorbed Dose in Cycle 1, max [1]: 1.19 Gy/GBq
Absorbed Dose in Cycle 1, min [1]: 0.04 Gy/GBq
Absorbed Dose, Mean (Lacrimal Glands): 0.40 Gy/GBq
Absorbed Dose, max (Lacrimal Glands): 1.19 Gy/GBq
Absorbed Dose, median (Lacrimal Glands): 0.26 Gy/GBq
Absorbed Dose, min (Lacrimal Glands): 0.04 Gy/GBq
Absorbed Dose, Mean (Left colon): 0.47 Gy/GBq
Absorbed Dose, max (Left colon): 1.53 Gy/GBq
Absorbed Dose, median (Left colon): 0.41 Gy/GBq
Absorbed Dose, min (Left colon): 0.01 Gy/GBq
Absorbed Dose in Cycle 1, Mean (Left colon): 0.52 Gy/GBq
Absorbed Dose in Cycle 1, max (Left colon): 1.53 Gy/GBq
Absorbed Dose in Cycle 1, min (Left colon): 0.01 Gy/GBq
Absorbed Dose, Mean (Liver): 0.04 Gy/GBq
Absorbed Dose, max (Liver): 0.10 Gy/GBq
Absorbed Dose, median (Liver): 0.03 Gy/GBq
Absorbed Dose, min (Liver): 0.01 Gy/GBq
Absorbed Dose in Cycle 1, Mean (Liver): 0.04 Gy/GBq
Absorbed Dose in Cycle 1, max (Liver): 0.10 Gy/GBq
Absorbed Dose in Cycle 1, min (Liver): 0.01 Gy/GBq
Absorbed Dose, Mean (Lungs): 0.01 Gy/GBq
Absorbed Dose, max (Lungs): 0.07 Gy/GBq
Absorbed Dose, median (Lungs): 0.01 Gy/GBq
Absorbed Dose, min (Lungs): 0.00 Gy/GBq
Absorbed Dose in Cycle 1, Mean (Lungs): 0.01 Gy/GBq
Absorbed Dose in Cycle 1, max (Lungs): 0.07 Gy/GBq
Absorbed Dose in Cycle 1, min (Lungs): 0.00 Gy/GBq
Absorbed Dose, Mean (Osteogenic cells): 0.05 Gy/GBq
Absorbed Dose, max (Osteogenic cells): 0.29 Gy/GBq
Absorbed Dose, median (Osteogenic cells): 0.02 Gy/GBq
Absorbed Dose, min (Osteogenic cells): 0.00 Gy/GBq
Absorbed Dose in Cycle 1, Mean (Osteogenic cells): 0.04 Gy/GBq
Absorbed Dose in Cycle 1, max (Osteogenic cells): 0.19 Gy/GBq
Absorbed Dose in Cycle 1, min (Osteogenic cells): 0.00 Gy/GBq
Absorbed Dose, Mean (Pancreas): 0.02 Gy/GBq
Absorbed Dose, max (Pancreas): 0.07 Gy/GBq
Absorbed Dose, median (Pancreas): 0.01 Gy/GBq
Absorbed Dose, min (Pancreas): 0.00 Gy/GBq
Absorbed Dose in Cycle 1, Mean (Pancreas): 0.02 Gy/GBq
Absorbed Dose in Cycle 1, max (Pancreas): 0.07 Gy/GBq
Absorbed Dose in Cycle 1, min (Pancreas): 0.00 Gy/GBq
Absorbed Dose, Mean (Prostate): 0.02 Gy/GBq
Absorbed Dose, max (Prostate): 0.07 Gy/GBq
Absorbed Dose, median (Prostate): 0.01 Gy/GBq
Absorbed Dose, min (Prostate): 0.01 Gy/GBq
Compound: O=C(O)CC[C@H](NC(=O)N[C@@H](CCCCNC(=O)CCCCCCC(=O)NCCCC[C@@H](NC(=O)[C@@H](Cc1ccccc1)NC(=O)[C@@H](Cc1ccc(O)c(I)c1)NC(=O)CC[C@H](C(=O)O)N1CCN(CC(=O)O)CCN(CC(=O)O)CCN(CC(=O)O)CC1)C(=O)O)C(=O)O)C(=O)O [^177Lu-PSMA-I&T, (3S,7 S,26R,29R,32R,37R)-29-benzyl-32-(4-hydroxy-3-iodobenzyl)-5,13,20,28,31,34-hexaoxo-37-(4,7,10-tris(carboxymethyl)-1,4,7,10-tetraazacyclododecan-1-yl)-4,6,12,21,27,30,33-heptaazaheptatriacontane-1,3,7,26,37-pentacarboxylic acid; lutetium-177 (III), metal not drawn]
